Numbered stars: 1 amine (or outer) side, 2 acyl side, 3 side chain; on linkers, the order of the positions; unused ones are H or OH. Bridge positions count the residues as written; N and C are the ends. Square brackets hold non-standard residues; d marks the D form. Peptide text beside a SMILES is read from it. ξ: configuration not given here. Ala(Nα-(CH2)3CO) = C[C@@H](C(=O)[*:2])N(CCCC(=O)[*:3])[*:1]; Ala(Nα-(CH2)3NH) = C[C@@H](C(=O)[*:2])N(CCCN[*:3])[*:1]; Gly(Nα-(CH2)3CO) = O=C(CN(CCCC(=O)[*:3])[*:1])[*:2]; N(2-Aminoethyl)Gly = O=C(CN(CCN[*:3])[*:1])[*:2]; ξY = NC(Cc1ccc(O)cc1)C(=O)O
How the values were obtained:
A375 cells = test: Bioassay using A375 cells, cytokines other than IL-6; format: cell-based, human; settings: maximal inhibitory activity of IL-6 on A375 cells = 100%
From the text: The A375 are human melanoma cells. IL-6 induces differentiation of A375 cells which is associated with growth arrest similar to the phenomenon observed with the B16F10.9 murine melanoma cells. Thus, inhibition of IL-6 results in continued growth of the cells which is easily quantifiable. In such case toxicity of peptides would register as a false negative rather than false positive. This conditions is preferable during screening process. Second, since these are human cells, the molecules involved in the bio-response, i.e. IL-6, IL-6R and gp130 are all of human origin thus ensuring authenticity of the tested peptide bioactivity. Another advantage of the A375 cells is their ability to be induced by other cytokines that share the gp130 signal transducer, i.e. leukemia inhibitory factor (LIF) and oncostatine M (OSM). […] The availability of this assay system, allows us to test, the specificity of our IL-6 inhibitory peptides vs. other cytokines of the family, in an array of assays all using a single cell line. Assay performance is described in Savino et al. (ibid).

B16.F10.9 melanoma cells = settings: for B16F10.9 active at: theoretical crude concentration, MPS peptides; for concentration that fully blocks IL-6 activity: 200 ng/ml IL-6 and 125 ng/ml sIL-6R, three days, FIG. 2
From the text: The F10.9 sub-line of B16 (murine melanoma) expresses gp130 but not IL-6R. Addition of human IL-6 and human IL-6R, or a chimera of IL-6/IL-6R results in differentiation which is associated with growth arrest of the cells. Inhibition of IL-6 results in continued growth. Since the end point of this assay is cell growth rather than cell death, this assay system was used primarily in order to differentiate between suspected toxic effects observed on B9 or T1165 cells, and true inhibition of IL-6 activity.
Evaluation of the results in this assay is possible using two methods. One method uses vital dyes for monitoring cell growth. The second method comprises visual observation of the cell morphology and establishing a cut off point based on the following observations:
Cells which are not treated with IL-6 create a monolayer that covers almost all the surface area. Treatment with IL-6 causes growth arrest and a morphological change: the cells become very narrow and elongated as compared to the more spread out shape of the non-treated cells.
Peptides were added to B16.F10.9 melanoma cells in the presence of 200 ng/ml IL-6 and 125 ng/ml sIL-6R. Incubation for three days.

[1] = system: TF1 cells maintained with IL-6; test: Bioassay using TF1 cells maintained with IL-6; format: cell-based, human; parameters: TF1: unit not given here; settings: for TF1: MPS crude peptides, Table 6
From the text: TF1 cells (human erythroleukemia) cells require IL-6 for growth and thus inhibition of IL-6 bioactivity results in cell death, similar to T1165 cells. The origin of all relevant molecules is human.
The problem associated with toxicity (false positive results), could be overcome in the TF1 based assay since these cells can be induced by additional cytokines which are unrelated to IL-6 (not using the gp130 signal transducer). It, is possible to induce the cells to grow with IL-6 and with additional cytokine e.g. GM-CSF. Specific inhibition of IL-6 bioactivity is therefore expected to register only in cells induced by IL-6 and not with GM-CSF. […] Assay procedure is based on the procedure described in Fourcin et al. (ibid). The amount of viable cells at the end of the assay is determined by staining the cells with WST reagent as well as by measuring thymidine corporation (^3H-T).
The libraries were screened for binding of soluble IL-6. The information obtained was used for synthesis of backbone cyclic peptides in MPS format. Analyses for biological activity were performed on the TF1 human cell line.
Since the endpoint of the bioassay used is cell death, there is a need to check the specificity of the killing action, and to examine whether the cell death is due to inhibition of the IL-6 signaling pathway. The peptide analogs were therefore analyzed for their ability to induce non-specific cell death when the same cells were maintained with GM-CSF (instead of IL-6) as growth factor.

[2] = system: IL-6 mediated acute-phase response; test: IL-6 mediated acute-phase response (turpentine model); format: in vivo, mice; settings: mice, turpentine, 1 or 10 mg/kg of peptide
From the text: The objective was to establish a simple first-line in-vivo model, for testing the activity of IL-6 inhibitors. The turpentine model was chosen based on the principal role that IL-6 plays in this inflammatory response.
Systemic and localized inflammation elicit a general reaction in the organism, known as the acute phase response, which includes fever, loss of body weight, hypoglycemia, and changes in the serum levels of several plasma proteins produced by the liver. IL-6 is an important mediator of the acute-phase reaction (see Heinrich et.al., Biochemistry J. 1 265:621, 1990 for a comprehensive review), together with IL-1 and TNF-α. It has been shown previously that sterile tissue damage caused by injection of turpentine induces an acute-phase reaction, and that IL-6 is an essential mediator of this response (Rokita et.al., Cytokine 5:454, 1993).
IL-6 knock-out (-/-) and matched wild-type (C57/Black; CB) mice were used. Sterile tissue damage was induced by subcutaneous injection of turpentine, 0.1 ml, into both hind limbs. IL-6 was determined in the serum by ELISA (QuantikineM, R&D). For liver acute-phase proteins, Fibrinogen was determined in citrated plasma, by the calcium method.
PTR 5045 (SEQ ID NO:75) was tested in this model in compare to the non-relevant control peptide PTR 4041 (SEQ ID NO:33) (Lys-GlyC2-Leu-Ile-Gln-Leu-Phe-GlyN3-Lys-Lys-NH2).

| Molecule | B16F10.9 active at (B16.F10.9 melanoma cells) | TF1 [1] | further results |
| --- | --- | --- | --- |
| LIF: leukemia inhibitory factor, cytokine that shares the gp130 signal transducer | – | – | % Inhibition (relative to IL-6) (A375 cells; cytokine 1 ng/ml): 1%; % Inhibition (relative to IL-6) (A375 cells; cytokine 10 ng/ml): 2% |
| CC(C)C[C@@H]1NC(=O)[C@H](C)N(C(=O)[C@@H](Cc2ccccc2)NC(=O)[C@@H](CCCNC(=N)N)NC(=O)[C@H](CCCCN)NC(=O)[C@H](CCCNC(=N)N)NC(=O)[C@@H](N)Cc2ccc(O)cc2)CCCC(=O)NCCCN([C@@H](C)C(N)=O)C(=O)C(Cc2ccc(O)cc2)NC(=O)[C@@H](CCCNC(=N)N)NC1=O (stereo partly drawn) [Tyr-Arg-Lys-(D)Arg-(D)Phe-AlaC3-Leu-(D)Arg-BTyr-AlaN3] (H-YRK[dR][dF][Ala(Nα-(CH2)3CO)]L[dR][ξY][Ala(Nα-(CH2)3NH)]-NH2; lactam 6-10) | 47 µM | 19 | – |
| (D)Lys-Arg-Lys-Arg-Phe-AlaC3-(D)Leu-(D)Arg-Tyr-AlaN3 | not active | 27 | – |
| Lys-Arg-Leu-(D)Arg-(D)Phe-AlaC3-Lys-Arg-BTyr-AlaN3 | not active | 22 | – |
| Lys-GlyC2-Leu-Ile-Gln-Leu-Phe-GlyN3-Lys-Lys-NH2 (KGLIQLFGKK; not fully specified; backbone cyclization, C-amide; listed as Homo sapiens) [PTR 4041, non-relevant control peptide, reference compound] | – | – | concentration that fully blocks IL-6 activity (B16.F10.9 melanoma cells): not active; Mean weight loss % [2]: −7.3%; Mean weight loss grams [2]: −2.51 grams |
| (D)Tyr-Arg-Lys-Arg-Phe-AlaC3-Lys-(D)Arg-(D)Tyr-AlaN3 | not active | 22 | – |
| CC(C)C[C@@H]1NC(=O)[C@H](C)N(C(=O)[C@@H](Cc2ccccc2)NC(=O)[C@H](CCCNC(=N)N)NC(=O)[C@H](CCCCN)NC(=O)[C@H](CCCNC(=N)N)NC(=O)[C@H](N)CCCCN)CCCC(=O)NCCCN([C@@H](C)C(N)=O)C(=O)[C@@H](Cc2ccc(O)cc2)NC(=O)[C@H](CCCNC(=N)N)NC1=O [(D)Lys-Arg-Lys-Arg-(D)Phe-AlaC3-Leu-Arg-(D)Tyr-AlaN3] (H-[dK]RKR[dF][Ala(Nα-(CH2)3CO)]LR[dY][Ala(Nα-(CH2)3NH)]-NH2; lactam 6-10) | 62 µM | 23 | – |
| CC(C)C[C@@H]1NC(=O)[C@H](C)N(C(=O)[C@H](Cc2ccccc2)NC(=O)[C@@H](CCCNC(=N)N)NC(=O)[C@H](CCCCN)NC(=O)[C@H](CCCNC(=N)N)NC(=O)[C@@H](N)CCCCN)CCCC(=O)NCCCN([C@@H](C)C(N)=O)C(=O)C(Cc2ccc(O)cc2)NC(=O)[C@H](CCCNC(=N)N)NC1=O (stereo partly drawn) [Lys-Arg-Lys-(D)Arg-Phe-AlaC3-Leu-Arg-BTyr-AlaN3] (H-KRK[dR]F[Ala(Nα-(CH2)3CO)]LR[ξY][Ala(Nα-(CH2)3NH)]-NH2; lactam 6-10) | <12 µM | 85 | – |
| C[C@@H](C(N)=O)N1CCCNC(=O)CCCN(C(=O)[C@@H](Cc2ccccc2)NC(=O)[C@H](CCCNC(=N)N)NC(=O)[C@H](CCCCN)NC(=O)[C@H](CCCNC(=N)N)NC(=O)[C@H](N)CCCCN)[C@@H](C)C(=O)N[C@@H](CCCCN)C(=O)N[C@@H](CCCNC(=N)N)C(=O)N[C@@H](Cc2ccc(O)cc2)C1=O [(D)Lys-Arg-Lys-Arg-(D)Phe-AlaC3-Lys-Arg-Tyr-AlaN3] (H-[dK]RKR[dF][Ala(Nα-(CH2)3CO)]KRY[Ala(Nα-(CH2)3NH)]-NH2; lactam 6-10) | 62 µM | 55 | – |
| CC(C)C[C@@H](NC(=O)[C@H](CCCNC(=N)N)NC(=O)[C@H](N)CCCCN)C(=O)N[C@H](CCCNC(=N)N)C(=O)N[C@H](Cc1ccccc1)C(=O)N1CCCC(=O)NCCCN([C@@H](C)C(N)=O)C(=O)[C@@H](Cc2ccc(O)cc2)NC(=O)[C@H](CCCNC(=N)N)NC(=O)[C@@H](CC(C)C)NC(=O)[C@@H]1C [PTR 5041, (D)Lys-Arg-(D) Leu-(D) Arg-(D)Phe-AlaC3-(D)Leu-Arg-(D)Tyr-AlaN3-NH2] (H-[dK]R[dL][dR][dF][Ala(Nα-(CH2)3CO)][dL]R[dY][Ala(Nα-(CH2)3NH)]-NH2; lactam 6-10) | 47 µM | 92 | concentration that fully blocks IL-6 activity (B16.F10.9 melanoma cells): about 250 nM |
| CC(C)C[C@@H]1NC(=O)[C@H](C)N(C(=O)[C@@H](Cc2ccccc2)NC(=O)[C@@H](CCCNC(=N)N)NC(=O)[C@H](CCCCN)NC(=O)[C@H](CCCNC(=N)N)NC(=O)[C@@H](N)Cc2c[nH]c3ccccc23)CCCC(=O)NCCCN([C@@H](C)C(N)=O)C(=O)C(Cc2ccc(O)cc2)NC(=O)[C@H](CCCNC(=N)N)NC1=O (stereo partly drawn) [Trp-Arg-Lys-(D)Arg-(D)Phe-AlaC3-Leu-Arg-BTyr-AlaN3] (H-WRK[dR][dF][Ala(Nα-(CH2)3CO)]LR[ξY][Ala(Nα-(CH2)3NH)]-NH2; lactam 6-10) | <12 µM | 41 | – |
| (D)Lys-Arg-Lys-Arg-Phe-AlaC3-Leu-(D)Arg-(D)Tyr-AlaN3 | not active | 19 | – |
| CC(C)C[C@@H]1NC(=O)CN(C(=O)[C@H](Cc2ccccc2)NC(=O)[C@H](CCCNC(=N)N)NC(=O)[C@H](CC(C)C)NC(=O)[C@H](CCCNC(=N)N)NC(=O)[C@@H](N)Cc2ccc(O)cc2)CCCC(=O)NCCN(CC(N)=O)C(=O)[C@H](Cc2ccc(O)cc2)NC(=O)[C@H](CCCNC(=N)N)NC1=O [PTR 5005, Tyr-Arg-Leu-Arg-Phe-GlyC3-Leu-Arg-Tyr-GlyN2] (H-YRLRF[Gly(Nα-(CH2)3CO)]LRY[N(2-Aminoethyl)Gly]-NH2; lactam 6-10) | – | – | IC50 in the B16F10.9 cell assay (B16.F10.9 melanoma cells): around 10 μ/ml; activity on TF1 cells ([1]; in words): appears to be active |
| (D)Lys-Arg-Lys-Arg-Phe-AlaC3-Lys-Arg-(D)Tyr-AlaN3 | not active | 21 | – |
| C[C@@H](C(N)=O)N1CCCNC(=O)CCCN(C(=O)[C@@H](Cc2ccccc2)NC(=O)[C@@H](CCCNC(=N)N)NC(=O)[C@H](CCCCN)NC(=O)[C@H](CCCNC(=N)N)NC(=O)[C@H](N)CCCCN)[C@@H](C)C(=O)N[C@@H](CCCCN)C(=O)N[C@@H](CCCNC(=N)N)C(=O)N[C@@H](Cc2ccc(O)cc2)C1=O [(D)Lys-Arg-Lys-(D)Arg-(D)Phe-AlaC3-Lys-Arg-Tyr-AlaN3] (H-[dK]RK[dR][dF][Ala(Nα-(CH2)3CO)]KRY[Ala(Nα-(CH2)3NH)]-NH2; lactam 6-10) | 62 µM | 17 | – |
| CC(C)C[C@@H]1NC(=O)[C@H](C)N(C(=O)[C@@H](Cc2ccccc2)NC(=O)[C@@H](CCCNC(=N)N)NC(=O)[C@H](CCCCN)NC(=O)[C@H](CCCNC(=N)N)NC(=O)[C@H](N)CCCCN)CCCC(=O)NCCCN([C@@H](C)C(N)=O)C(=O)[C@H](Cc2ccc(O)cc2)NC(=O)[C@H](CCCNC(=N)N)NC1=O [(D)Lys-Arg-Lys-(D)Arg-(D)Phe-AlaC3-Leu-Arg-Tyr-AlaN3] (H-[dK]RK[dR][dF][Ala(Nα-(CH2)3CO)]LRY[Ala(Nα-(CH2)3NH)]-NH2; lactam 6-10) | 62 µM | 13 | – |
| OSM: oncostatine M, cytokine that shares the gp130 signal transducer (protein, UniProt P13725 26-221, looked up) Oncostatin-M: AAIGSCSKEYRVLLGQLQKQTDLMQDTSRLLDPYIRIQGLDVPKLREHCRERPGAFPSEETLRGLGRRGFLQTLNATLGCVLHRLADLEQRLPKAQDLERSGLNIEDLEKLQMARPNILGLRNNIYCMAQLLDNSDTAEPTKAGRGASQPPTPTPASDAFQRKLEGCRFLHGYHRFMHSVGRVFSKWGESPNRSRR | – | – | % Inhibition (relative to IL-6) (A375 cells; cytokine 1 ng/ml): 94%; % Inhibition (relative to IL-6) (A375 cells; cytokine 10 ng/ml): 141% |
